In patent US20230072683A1, “PYRIDO-PYRIMIDIN DERIVATIVES AND PHARMACEUTICAL COMPOSITION, FOR USE IN PREVENTING OR TREATING PI3 KINASE RELATED DISEASES, COMPRISING SAME AS ACTIVE INGREDIENT” (BORYUNG PHARMACEUTICAL CO., LTD, priority 2019, published 2023) one finds inhibition data, which are given here for 20 compounds.

Where two headings read alike, the source gives them in different places.

In one test the target is DNA-PK(h) (Homo sapiens, UniProt P78527). The experiment in a line: Evaluation of inhibitory activity against DNA-PK (HTRF kinase assay, GST-cMyc-p53 substrate). As to conditions: for inhibition at 0.01 µM: compound concentration 0.01 μM, read-out: EXP_VALUE(% Inhibition) DNA-PK(h) 0.01 μM; for inhibition at 0.1 µM: read-out: EXP_VALUE(% Inhibition) DNA-PK(h) 0.1 μM. The format is biochemical. A digest of the protocol:
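p53 Ser15 phosphorylation by human DNA-PK was measured by time-resolved FRET ratio (665/620 nm ×10000) using Eu-labelled anti-phospho-Ser15 and d2 anti-GST antibodies. Substrate GST-cMyc-p53 at 50 μM; Mg/ATP-initiated, 30 min at room temperature, EDTA stop.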
Background: In TR-FRET formats the signal depends on donor and acceptor labels being close together.

Test [1] addresses PI3K-δ (PI3K(p1108/p857) (h)) (Homo sapiens, UniProt O00329). Put plainly: Evaluation of inhibitory activity against PI3K-δ (HTRF kinase assay). As to conditions: for inhibition at 0.01 µM: compound concentration 0.01 μM, read-out: EXP_VALUE(% Inhibition) PI3K-δ 0.01 μM; for inhibition at 0.1 µM: read-out: EXP_VALUE(% Inhibition) PI3K-δ 0.1 μM. Type of test: biochemical. The essentials: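 HTRF read-out (665/620 nm ratio ×10000) used Eu-labelled anti-GST, GST-tagged GRP1 PH domain and streptavidin-allophycocyanin after EDTA/PIP3 stop.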

PI3K-δ (PI3K(p1108/p857) (h)), sequence (O00329 whole entry, the tested form may be a part): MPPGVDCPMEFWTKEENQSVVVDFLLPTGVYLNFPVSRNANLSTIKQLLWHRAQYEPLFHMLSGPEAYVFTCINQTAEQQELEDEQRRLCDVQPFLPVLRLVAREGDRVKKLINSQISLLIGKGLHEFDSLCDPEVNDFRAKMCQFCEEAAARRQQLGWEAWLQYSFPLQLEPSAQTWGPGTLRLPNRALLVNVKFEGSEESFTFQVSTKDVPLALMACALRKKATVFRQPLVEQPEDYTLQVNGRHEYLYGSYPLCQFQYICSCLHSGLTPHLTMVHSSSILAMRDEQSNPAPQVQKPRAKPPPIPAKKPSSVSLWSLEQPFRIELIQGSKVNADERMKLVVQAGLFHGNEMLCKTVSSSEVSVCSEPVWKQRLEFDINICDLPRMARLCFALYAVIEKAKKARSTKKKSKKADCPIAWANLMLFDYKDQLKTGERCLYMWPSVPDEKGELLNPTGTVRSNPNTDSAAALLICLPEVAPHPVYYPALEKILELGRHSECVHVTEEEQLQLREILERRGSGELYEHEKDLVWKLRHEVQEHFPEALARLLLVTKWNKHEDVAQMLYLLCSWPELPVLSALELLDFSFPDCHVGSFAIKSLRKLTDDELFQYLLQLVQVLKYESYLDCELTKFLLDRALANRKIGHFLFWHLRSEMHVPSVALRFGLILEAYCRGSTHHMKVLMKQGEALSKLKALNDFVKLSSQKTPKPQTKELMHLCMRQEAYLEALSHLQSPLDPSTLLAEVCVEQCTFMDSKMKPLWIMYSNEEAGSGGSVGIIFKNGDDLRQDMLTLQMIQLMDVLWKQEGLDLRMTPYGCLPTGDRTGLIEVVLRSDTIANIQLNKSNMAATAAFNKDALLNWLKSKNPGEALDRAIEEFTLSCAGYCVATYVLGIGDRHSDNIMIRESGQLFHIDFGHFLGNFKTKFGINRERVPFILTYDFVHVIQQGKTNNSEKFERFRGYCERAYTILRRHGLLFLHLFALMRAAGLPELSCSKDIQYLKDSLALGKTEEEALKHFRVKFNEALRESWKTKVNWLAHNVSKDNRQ
PI3K-δ (PI3K(p1108/p857) (h)), sequence (P27986 whole entry partner, the tested form may be a part): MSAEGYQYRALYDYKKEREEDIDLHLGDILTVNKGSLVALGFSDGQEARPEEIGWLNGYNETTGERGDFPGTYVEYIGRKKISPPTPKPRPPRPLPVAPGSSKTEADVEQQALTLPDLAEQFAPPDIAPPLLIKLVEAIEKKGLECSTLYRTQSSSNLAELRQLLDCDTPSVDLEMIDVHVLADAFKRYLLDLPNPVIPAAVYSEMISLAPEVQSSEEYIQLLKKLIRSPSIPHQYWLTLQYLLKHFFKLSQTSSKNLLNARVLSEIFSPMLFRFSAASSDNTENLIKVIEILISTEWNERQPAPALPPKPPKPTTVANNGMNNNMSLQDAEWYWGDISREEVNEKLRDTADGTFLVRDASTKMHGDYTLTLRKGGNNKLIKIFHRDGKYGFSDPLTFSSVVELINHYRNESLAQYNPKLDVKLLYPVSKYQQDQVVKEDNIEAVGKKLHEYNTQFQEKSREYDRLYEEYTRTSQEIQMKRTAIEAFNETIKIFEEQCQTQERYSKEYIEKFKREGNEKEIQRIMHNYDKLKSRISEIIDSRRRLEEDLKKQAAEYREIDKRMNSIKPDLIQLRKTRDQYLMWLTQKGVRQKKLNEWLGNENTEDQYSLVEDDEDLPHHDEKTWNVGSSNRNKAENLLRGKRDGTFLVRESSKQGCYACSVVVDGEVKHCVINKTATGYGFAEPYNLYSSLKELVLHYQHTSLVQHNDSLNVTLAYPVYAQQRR

The inhibition is the drop in the measured response relative to a control, in per cent. As to `C[C@H](Nc1ncnc2[nH]ccc(=O)c12)c1c(Cl)c2cccc(-c3ccc(C4CCOCC4)cc3)c2c(=O)n1-c1ccccc1` [Example 176, (S)-4-((1-(4-chloro-1-oxo-2-phenyl-8-(4-(tetrahydro-2H-pyran-4-yl)phenyl)-1,2-dihydroisoquinolin-3-yl)ethyl)amino)pyrido[2,3-d]pyrimidin-5(8H)-one], the inhibition at 0.01 µM at DNA-PK(h) is 48%; in test [1], 19%.
The corresponding values for `C[C@H](Nc1ncnc2[nH]ccc(=O)c12)c1c(Cl)c2cccc(-c3cnc(OC(C)(C)C)cn3)c2c(=O)n1-c1ccccc1` [Example 206, (S)-4-((1-(8-(5-(tert-butoxy)pyrazin-2-yl)-4-chloro-1-oxo-2-phenyl-1,2-dihydroisoquinolin-3-yl)ethyl)amino)pyrido[2,3-d]pyrimidin-5(8H)-one] are 29% and 45%.
The corresponding values for `CCOc1ccc(-c2cccc3c(Cl)c([C@H](C)Nc4ncnc5[nH]ccc(=O)c45)n(-c4ccccc4)c(=O)c23)cn1` [Example 183, (S)-4-((1-(4-chloro-8-(6-ethoxypyridin-3-yl)-1-oxo-2-phenyl-1,2-dihydroisoquinolin-3-yl)ethyl)amino)pyrido[2,3-d]pyrimidin-5(8H)-one] are 68% and 85%.
For `COc1cc(-c2cccc3c(Cl)c([C@H](C)Nc4ncnc5c4c(=O)ccn5-c4ccnc(OC)c4)n(-c4ccccc4)c(=O)c23)ccn1` [Example 149, (S)-4-((1-(4-chloro-8-(2-methoxypyridin-4-yl)-1-oxo-2-phenyl-1,2-dihydroisoquinolin-3-yl)ethyl)amino)-8-(2-methoxypyridin-4-yl)pyrido[2,3-d]pyrimidin-5(8H)-one], in that order: 7% and 2%.
Take `C[C@H](Nc1ncnc2[nH]ccc(=O)c12)c1c(Cl)c2cccc(-c3cnc(C4CC4)nc3)c2c(=O)n1-c1ccccc1` [Example 168, (S)-4-((1-(4-chloro-8-(2-cyclopropylpyrimidin-5-yl)-1-oxo-2-phenyl-1,2-dihydroisoquinolin-3-yl)ethyl)amino)pyrido[2,3-d]pyrimidin-5(8H)-one]: the inhibition at 0.01 µM worked out at 67% on DNA-PK(h) and 58% in test [1].
The corresponding values for `CC(C)c1ncncc1-c1cccc2c(Cl)c([C@H](C)Nc3ncnc4[nH]ccc(=O)c34)n(-c3ccccc3)c(=O)c12` [Example 215, (S)-4-((1-(4-chloro-8-(4-isopropylpyrimidin-5-yl)-1-oxo-2-phenyl-1,2-dihydroisoquinolin-3-yl)ethyl)amino)pyrido[2,3-d]pyrimidin-5(8H)-one] are 44% and 73%.
Take `C[C@H](Nc1ncnc2[nH]ccc(=O)c12)c1c(Cl)c2cccc(N3C[C@]4(C)C[C@H]3CC(C)(C)C4)c2c(=O)n1-c1ccccc1` [Example 327, 4-(((S)-1-(4-chloro-1-oxo-2-phenyl-8-((1S,5R)-1,3,3-trimethyl-6-azabicyclo[3.2.1]octan-6-yl)-1,2-dihydroisoquinolin-3-yl)ethyl)amino)pyrido[2,3-d]pyrimidin-5(8H)-one]: the figures for the inhibition at 0.01 µM (on DNA-PK(h); in test [1]) were -13% and 4%, respectively. The inhibition at 0.1 µM at DNA-PK(h) (compound concentration 0.1 μM) was 8%; in test [1] (compound concentration 0.1 μM), 25%.
For the compound `C[C@H](Nc1ncnc2[nH]ccc(=O)c12)c1c(Cl)c2cccc(-c3cccc(F)c3)c2c(=O)n1-c1ccccc1` [Example 123, (S)-4-((1-(4-chloro-8-(3-fluorophenyl)-1-oxo-2-phenyl-1,2-dihydroisoquinolin-3-yl)ethyl)amino)pyrido[2,3-d]pyrimidin-5(8H)-one], the inhibition at 0.01 µM on DNA-PK(h) turned out to be 58%; in test [1] it was 66%. The inhibition at 0.1 µM stood at 93% on DNA-PK(h) (compound concentration 0.1 μM) and 94% in test [1] (compound concentration 0.1 μM).
In the case of `COc1ncc(-c2cccc3cc([C@H](C)Nc4ncnc5[nH]ccc(=O)c45)n(-c4ccccc4)c(=O)c23)cn1` [Example 383, (S)-4-((1-(8-(2-methoxypyrimidin-5-yl)-1-oxo-2-phenyl-1,2-dihydroisoquinolin-3-yl)ethyl)amino)pyrido[2,3-d]pyrimidin-5(8H)-one], the results for the inhibition at 0.1 µM (on DNA-PK(h) (compound at 0.1 μM); in test [1] (compound at 0.1 μM)) were 10% and 79%, respectively.
In the case of `CCCCC(=O)Nc1cccc2c(Cl)c([C@H](C)Nc3ncnc4[nH]ccc(=O)c34)n(-c3ccccc3)c(=O)c12` [Example 297, (S)—N-(4-chloro-1-oxo-3-(1-((5-oxo-5,8-dihydropyrido[2,3-d]pyrimidin-4-yl)amino)ethyl)-2-phenyl-1,2-dihydroisoquinolin-8-yl)pentanamide], the inhibition at 0.01 µM at DNA-PK(h) is 45%; in test [1], 9%.
Consider `C[C@H](Nc1ncnc2[nH]ccc(=O)c12)c1c(Cl)c2cccc(-c3ccc(SC4CC4)cc3)c2c(=O)n1-c1ccccc1` [Example 152, (S)-4-((1-(4-chloro-8-(4-(cyclopropylthio)phenyl)-1-oxo-2-phenyl-1,2-dihydroisoquinolin-3-yl)ethyl)amino)pyrido[2,3-d]pyrimidin-5(8H)-one], for which the inhibition at 0.01 µM came to 36% on DNA-PK(h) and 58% in test [1].
The corresponding values for `C[C@H](Nc1ncnc2[nH]ccc(=O)c12)c1c(Cl)c2cccc(Nc3ccc(F)cc3)c2c(=O)n1-c1ccccc1` [Example 344, (S)-4-((1-(4-chloro-8-((4-fluorophenyl)amino)-1-oxo-2-phenyl-1,2-dihydroisoquinolin-3-yl)ethyl)amino)pyrido[2,3-d]pyrimidin-5(8H)-one] are -7% and 13%.
Turning to `C[C@H](Nc1ncnc2[nH]ccc(=O)c12)c1c(Cl)c2cccc(-c3ccc(C(=O)N4CCOCC4)cc3)c2c(=O)n1-c1ccccc1` [Example 145, (S)-4-((1-(4-chloro-8-(4-(morpholin-4-carbonyl)phenyl)-1-oxo-2-phenyl-1,2-dihydroisoquinolin-3-yl)ethyl)amino)pyrido[2,3-d]pyrimidin-5(8H)-one], the values for the inhibition at 0.01 µM (at DNA-PK(h); in test [1]) were 93% and 88%, respectively.
As to `C[C@H](Nc1ncnc2[nH]ccc(=O)c12)c1c(Cl)c2cccc(-c3cccc4[nH]ccc34)c2c(=O)n1-c1ccccc1` [Example 89, (S)-4-((1-(4-chloro-8-(1H-indol-4-yl)-1-oxo-2-phenyl-1,2-dihydroisoquinolin-3-yl)ethyl)amino)pyrido[2,3-d]pyrimidin-5(8H)-one], the inhibition at 0.01 µM at DNA-PK(h) was 17%; in test [1] it was 58%. For the same compound, the inhibition at 0.1 µM on DNA-PK(h) (compound concentration 0.1 μM) was determined as 52%; in test [1] (compound concentration 0.1 μM), 92%.
On to `C[C@H](Nc1ncnc2[nH]ccc(=O)c12)c1cc2cccc(-c3ccc(C#N)cc3)c2c(=O)n1-c1ccccc1` [Example 23, (S)-4-(1-oxo-3-(1-((5-oxo-5,8-dihydropyrido[2,3-d]pyrimidin-4-yl)amino)ethyl)-2-phenyl-1,2-dihydroisoquinolin-8-yl)benzonitrile], for which the inhibition at 0.01 µM at DNA-PK(h) was found to be 38%; in test [1] it was 82%. In addition, the inhibition at 0.1 µM at DNA-PK(h) (compound concentration 0.1 μM) was 85%; in test [1] (compound concentration 0.1 μM) it was 96%.
For the compound `C[C@H](Nc1ncnc2[nH]ccc(=O)c12)c1c(Cl)c2cccc(-c3ccc(C(N)=O)nc3)c2c(=O)n1-c1ccccc1` [Example 201, (S)-5-(4-chloro-1-oxo-3-(1-((5-oxo-5,8-dihydropyrido[2,3-d]pyrimidin-4-yl)amino)ethyl)-2-phenyl-1,2-dihydroisoquinolin-8-yl) picolinamide], the inhibition at 0.01 µM on DNA-PK(h) was 73%; in test [1], 80%.
With `C[C@H](Nc1ncnc2[nH]ccc(=O)c12)c1c(Cl)c2cccc(-c3cc4[nH]ncc4cn3)c2c(=O)n1-c1ccccc1` [Example 27, (S)-4-((1-(4-chloro-1-oxo-2-phenyl-8-(1H-pyrazolo[4,3-c]pyridin-6-yl)-1,2-dihydroisoquinolin-3-yl)ethyl)amino)pyrido[2,3-d]pyrimidin-5(8H)-one], the inhibition at 0.01 µM amounted to 34% on DNA-PK(h) and 76% in test [1].
Turning to `C[C@H](Nc1ncnc2[nH]ccc(=O)c12)c1c(Cl)c2cccc([S+]([O-])C3COC3)c2c(=O)n1-c1ccccc1` (stereo partly drawn) [Example 431, 4-(((1S)-1-(4-chloro-8-(oxetan-3-ylsulfinyl)-1-oxo-2-phenyl-1,2-dihydroisoquinolin-3-yl)ethyl)amino)pyrido[2,3-d]pyrimidin-5(8H)-one], the inhibition at 0.1 µM at DNA-PK(h) (compound at 0.1 μM) turned out to be 57%; in test [1] (compound at 0.1 μM), 32%.
In the case of `C[C@H](Nc1ncnc2[nH]ccc(=O)c12)c1c(Cl)c2cccc(S(=O)(=O)C3COC3)c2c(=O)n1-c1ccccc1` [Example 432, (S)-4-((1-(4-chloro-8-(oxetan-3-ylsulfonyl)-1-oxo-2-phenyl-1,2-dihydroisoquinolin-3-yl)ethyl)amino)pyrido[2,3-d]pyrimidin-5(8H)-one], the values for the inhibition at 0.1 µM (on DNA-PK(h) (compound at 0.1 μM); in test [1] (compound at 0.1 μM)) were 47% and 87%, respectively.
For `C[C@H](Nc1ncnc2[nH]ccc(=O)c12)c1c(Cl)c2cccc(-c3cccc(F)c3Cl)c2c(=O)n1-c1ccccc1` [Example 106, (S)-4-((1-(4-chloro-8-(2-chloro-3-fluorophenyl)-1-oxo-2-phenyl-1,2-dihydroisoquinolin-3-yl)ethyl)amino)pyrido[2,3-d]pyrimidin-5(8H)-one], the inhibition at 0.01 µM amounted to 14% on DNA-PK(h) and 53% in test [1]. Moreover, the inhibition at 0.1 µM on DNA-PK(h) (compound concentration 0.1 μM) is 59%; in test [1] (compound concentration 0.1 μM) it was 87%.
